What follows are compounds tested on C9M-TF1 cells (assay: EC50 titration, Alamar Blue, suspension cells). Conditions: Homo sapiens, 72 h.
Type: cell-based
Protocol: (§1) On the day of the assay compounds are used to prepare dilution series on Titration Plates which are plated at ten times their final screening concentration in 10 μl aliquots.
(§2) Suspension cells are split 24 hours prior to drug treatment in order to bring the cultures into the log phase of growth. On the day of the assay the cells are plated directly into the Titration Plates at the appropriate pre-determined seeding density (Table 1) in 90 μl volumes thus reducing the concentration of the compounds to their final test concentration. The plates are incubated for 72 hours at 37° C. and 5% CO2 after which time they are assayed by Alamar Blue.
(§3) The EC50 values are calculated using the values obtained from the Alamar Blue readout which are converted into a “Percentage of the Untreated Control” and using Graph Pad Prism these values are plotted against the logarithm of the test concentration. Using a non-linear regression analysis a sigmoidal dose-response curve is generated from which the EC50 is determined.
In the case of COc1cccc(-c2cnn3c(NCc4ccccn4)ccnc23)c1 [Compound 1], the EC50 is reported as 26 µM. With COc1ccc(-c2cnn3c(NCc4ccccn4)ccnc23)c(OC)c1 [Compound 4] the EC50 was 21.4 µM.

Each compound was assayed on FRAT2 overexpresing TF1 (FRAT2-C9M-TF1 cells) (assay: Primary high-throughput screen, Alamar Blue, suspension cells). Conditions: Homo sapiens; compound at 10 μM, 72 h; minus GMCSF; read-out: percentage kill, FRAT2−.
Type: cell-based
Protocol: (§4) Daughter Plates containing 10 μl of a […] solution of test compound selected from among the candidate compounds stored at […] are thawed at room temperature. A 10 μL volume of 0.1% DMSO in PBS is added to all wells of Column 12 and the wells in Row A-F of Column 1. A 10 μl volume of a pre-determined concentration of the P13-Kinase inhibitor LY294002 is added to wells in Row G and H of Column 1. A 90 μl volume of the appropriate cell culture medium is then added to each well and mixed by repeated aspiration/dispensing. The compounds are at a final test concentration of 10 μM.
(§5) Once the Daughter Plates have been prepared the media is removed from all wells of the cell culture plate using an 8-Channel Vacuum Aspirator. The contents of the Daughter Plates are then transferred to the appropriate wells of their relevant Test Plates and the Test Plates are incubated for 72 h at 37° C. and 5% CO2. At the end of this period Test Plates are assayed by Alamar Blue. A 10 μl volume of Alamar Blue is added to all wells of the Test Plate. The Test Plates are incubated for […] at 37° C. and 5% CO2 and finally read using the BioTek SYNERGY plate reader (Excitation 530125 nm-Emission 590135 nm). Percentage inhibition is determined using Microsoft Excel spreadsheet calculations.
(§6) Suspension cells are split 24 hours prior to drug treatment in order to bring the cultures into the log phase of growth. On the day of the assay the cells are plated directly into the Daughter Plates at the appropriate pre-determined seeding density (Table 1) in 90 μl volumes, the concentration of the test compounds thus being reduced to 10 μM. Cells are plated in all wells apart from those in Column 12 which contain 901 normal culture medium alone. The plates are incubated for 72 h at 37° C. and 5% CO2 after which time they are assayed by Alamar Blue as per the preceding example.
(§7) The figures appearing in the columns are the percentage kill achieved by that compound at 10 μM.
With COc1cccc(-c2cnn3c(NCc4ccccn4)ccnc23)c1 [Compound 1] the inhibition at 10 µM was 54%. Compound COc1ccc(-c2cnn3c(NCc4ccccn4)ccnc23)c(OC)c1 [Compound 4] has an inhibition at 10 µM of 71%.

Same assay, conditions: Homo sapiens; compound at 10 μM, 72 h; plus GMCSF; read-out: percentage kill, FRAT2+
COc1cccc(-c2cnn3c(NCc4ccccn4)ccnc23)c1 [Compound 1] was tested, and the inhibition at 10 µM was 28%. Compound COc1ccc(-c2cnn3c(NCc4ccccn4)ccnc23)c(OC)c1 [Compound 4] has an inhibition at 10 µM of 36%.

What follows are compounds tested on C9M-TF1 cells in the same assay as above. Conditions: Homo sapiens, 72 h, compound at 10 μM, first C9M column, read-out: percentage kill, C9M.
Type: cell-based
Protocol: as §4, §5, §6, §7
In the case of COc1cccc(-c2cnn3c(NCc4ccccn4)ccnc23)c1 [Compound 1], the inhibition at 10 µM is reported as -1%. Compound COc1ccc(-c2cnn3c(NCc4ccccn4)ccnc23)c(OC)c1 [Compound 4] has an inhibition at 10 µM of 1%.

Same assay, conditions: Homo sapiens, 72 h, compound at 10 μM, second C9M column, read-out: percentage kill, C9M
For COc1cccc(-c2cnn3c(NCc4ccccn4)ccnc23)c1 [Compound 1], the inhibition at 10 µM was 2%. In the case of COc1ccc(-c2cnn3c(NCc4ccccn4)ccnc23)c(OC)c1 [Compound 4], the inhibition at 10 µM is reported as 1%.

These compounds were tested on colon cancer cell line HT29 (assay: EC50 titration, Alamar Blue, adherent cells). Conditions: Homo sapiens, HT-29, 72 h.
Type: cell-based
Protocol: as §1
(§8) For adherent cell lines plated 24 hours previously, a 90 μl volume of the appropriate cell culture medium is then added to each well of the Titration Plates and mixed by repeated aspiration/dispensing, thus taking the compounds to their final test concentration. Once the Titration Plates have been prepared the media is removed from all wells of the cell culture plate and the contents of the Titration Plates are then transferred to the appropriate wells of their relevant Test Plates and incubated for 72 h at 37° C. and 5% CO2 after which time they are assayed by Alamar Blue. Using a combination of Microsoft Excel and Graph Pad Prism, EC50s are determined.
as §3
Compound COc1cccc(-c2cnn3c(NCc4ccccn4)ccnc23)c1 [Compound 1] has an EC50 of 3.98 µM. For COc1ccc(-c2cnn3c(NCc4ccccn4)ccnc23)c(OC)c1 [Compound 4], the EC50 was 1.58 µM.

The compounds below were run on breast cancer cell line MCF7 (assay: EC50 titration, Alamar Blue, adherent cells). Conditions: Homo sapiens, 72 h.
Type: cell-based
Protocol: as §1, §8, §3
With COc1cccc(-c2cnn3c(NCc4ccccn4)ccnc23)c1 [Compound 1] the EC50 was 3.8 µM. For COc1ccc(-c2cnn3c(NCc4ccccn4)ccnc23)c(OC)c1 [Compound 4], the EC50 was 1.78 µM.

Each compound was assayed on non-transformed breast cell line MCF10A (assay: EC50 titration, Alamar Blue, adherent cells). Conditions: Homo sapiens, MCF-10A, 72 h.
Type: cell-based
Protocol: as §1, §8, §3
Work on COc1cccc(-c2cnn3c(NCc4ccccn4)ccnc23)c1 [Compound 1] yielded an EC50 of 18.6 µM. For COc1ccc(-c2cnn3c(NCc4ccccn4)ccnc23)c(OC)c1 [Compound 4], the EC50 was 14.5 µM.

What follows are compounds tested on CACO2 Colon adenocarcinoma (assay: Primary high-throughput screen, Alamar Blue, adherent cells). Conditions: Homo sapiens, Caco-2; compound at 10 μM, 72 h; read-out: percentage kill, CAC02.
Type: cell-based
Protocol: (§9) Adherent cells are plated at a pre-determined seeding density (Table 1) in flat-bottom 96 well plates 24 hours prior to drug treatment. The cell lines are plated in 100 μl volumes in each well. Cells are plated in all wells apart from those in Column 12 which contain 100 μL normal culture medium alone. These plates will be known as the Test Plates. The Test Plates are labelled with a Daughter Plate ID.
as §4, §5, §7
COc1cccc(-c2cnn3c(NCc4ccccn4)ccnc23)c1 [Compound 1] gave an inhibition at 10 µM of 61%. With COc1ccc(-c2cnn3c(NCc4ccccn4)ccnc23)c(OC)c1 [Compound 4] the inhibition at 10 µM was 35%.

These compounds were tested on U1810 Non Small Cell Lung Carcinoma in the same assay as above. Conditions: U-1810; compound at 10 μM, 72 h; read-out: percentage kill, U1810.
Type: cell-based
Protocol: as §9, §4, §5, §7
For COc1cccc(-c2cnn3c(NCc4ccccn4)ccnc23)c1 [Compound 1], the inhibition at 10 µM was 15%. With COc1ccc(-c2cnn3c(NCc4ccccn4)ccnc23)c(OC)c1 [Compound 4] the inhibition at 10 µM was 16%.

The compounds below were run on A549 Non Small Cell Lung Carcinoma in the same assay as above. Conditions: Homo sapiens, compound at 10 μM, 72 h, read-out: percentage kill, A549.
Type: cell-based
Protocol: as §9, §4, §5, §7
COc1cccc(-c2cnn3c(NCc4ccccn4)ccnc23)c1 [Compound 1] showed an inhibition at 10 µM of 34%. For COc1ccc(-c2cnn3c(NCc4ccccn4)ccnc23)c(OC)c1 [Compound 4], the inhibition at 10 µM was 12%.

The compounds below were run on PC3 Prostate carcinoma (bone metastasis) in the same assay as above. Conditions: compound at 10 μM, 72 h; read-out: percentage kill, PC3.
Type: cell-based
Protocol: as §9, §4, §5, §7
COc1cccc(-c2cnn3c(NCc4ccccn4)ccnc23)c1 [Compound 1] showed an inhibition at 10 µM of -4%. For COc1ccc(-c2cnn3c(NCc4ccccn4)ccnc23)c(OC)c1 [Compound 4], the inhibition at 10 µM was -4%.

These compounds were tested on LS123 Colon adenocarcinoma (Dukes' type B) in the same assay as above. Conditions: Homo sapiens, LS-123; compound at 10 μM, 72 h; read-out: percentage kill, LS123.
Type: cell-based
Protocol: as §9, §4, §5, §7
COc1cccc(-c2cnn3c(NCc4ccccn4)ccnc23)c1 [Compound 1] gave an inhibition at 10 µM of 91%. COc1ccc(-c2cnn3c(NCc4ccccn4)ccnc23)c(OC)c1 [Compound 4] showed an inhibition at 10 µM of 92%.

What follows are compounds tested on NCI ADR RES Breast adenocarcinoma (pleural effusion) in the same assay as above. Conditions: Homo sapiens, compound at 10 μM, 72 h, read-out: percentage kill, NCI ADR RES.
Type: cell-based
Protocol: as §9, §4, §5, §7
Compound COc1cccc(-c2cnn3c(NCc4ccccn4)ccnc23)c1 [Compound 1] has an inhibition at 10 µM of 58%. Compound COc1ccc(-c2cnn3c(NCc4ccccn4)ccnc23)c(OC)c1 [Compound 4] has an inhibition at 10 µM of 67%.

These compounds were tested on SW480 Colon adenocarcinoma (Dukes' type B) in the same assay as above. Conditions: Homo sapiens, compound at 10 μM, 72 h, read-out: percentage kill, SW480.
Type: cell-based
Protocol: as §9, §4, §5, §7
With COc1cccc(-c2cnn3c(NCc4ccccn4)ccnc23)c1 [Compound 1] the inhibition at 10 µM was 33%. Compound COc1ccc(-c2cnn3c(NCc4ccccn4)ccnc23)c(OC)c1 [Compound 4] has an inhibition at 10 µM of 53%.

These compounds were tested on HT29 Colorectal adenocarcinoma in the same assay as above. Conditions: Homo sapiens, HT-29; compound at 10 μM, 72 h; read-out: percentage kill, HT29.
Type: cell-based
Protocol: as §9, §4, §5, §7
With COc1cccc(-c2cnn3c(NCc4ccccn4)ccnc23)c1 [Compound 1] the inhibition at 10 µM was 58%. COc1ccc(-c2cnn3c(NCc4ccccn4)ccnc23)c(OC)c1 [Compound 4] was tested, and the inhibition at 10 µM was 71%.

Each compound was assayed on MCF7 Mammary gland adenocarcinoma in the same assay as above. Conditions: Homo sapiens, compound at 10 μM, 72 h, read-out: percentage kill, MCF7.
Type: cell-based
Protocol: as §9, §4, §5, §7
In the case of COc1cccc(-c2cnn3c(NCc4ccccn4)ccnc23)c1 [Compound 1], the inhibition at 10 µM is reported as 68%. COc1ccc(-c2cnn3c(NCc4ccccn4)ccnc23)c(OC)c1 [Compound 4] was tested, and the inhibition at 10 µM was 64%.

What follows are compounds tested on FRAT2-C9M-TF1 cells (assay: EC50 titration, Alamar Blue, suspension cells). Conditions: Homo sapiens; 72 h, Alamar Blue; absence of growth factor.
Type: cell-based, Human
Protocol: as §1, §2, §3
COc1cccc(-c2cnn3c(NCc4ccccn4)ccnc23)c1 [Compound 1] gave an EC50 of 11.8 µM. Work on COc1ccc(-c2cnn3c(NCc4ccccn4)ccnc23)c(OC)c1 [Compound 4] yielded an EC50 of 2.75 µM.

Same assay, conditions: Homo sapiens; 72 h, Alamar Blue; presence of growth factor
With COc1cccc(-c2cnn3c(NCc4ccccn4)ccnc23)c1 [Compound 1] the EC50 was 12.9 µM. For COc1ccc(-c2cnn3c(NCc4ccccn4)ccnc23)c(OC)c1 [Compound 4], the EC50 was 5.62 µM.

— patent US20080300263A1, “Pyrazolo [1,5-a] pyrimidine compounds and pharmaceutical compositions containing them” (EiRx Therapeutics plc, priority 2005, published 2008)
